Experimental data from ChEMBL document CHEMBL5346860, “Cancer multidrug-resistance reversal by ABCB1 inhibition: A recent update” (Eur J Med Chem, 2022).
Converted amounts (≈) assume the structure as drawn. Blank lines part the entries; values can stand above or below the compound they belong to.

Assays:
[1] = tested on: A549/TR; test: Potentiation of paclitaxel induced antiproliferative activity against human A549/Taxol cells overexpressing ABCB1 assessed as fold reduction in paclitaxel IC50 by MTT assay relative to control
[2] = tested on: A2780/Taxol; test: Antiproliferative activity against human A2780/Taxol cells overexpressing ABCB1 assessed as cell growth inhibition by MTT assay; type: functional, cell-based
[3] = tested on: A2780/Taxol; test: Potentiation of paclitaxel induced antiproliferative activity against human A2780/Taxol cells overexpressing ABCB1 assessed as fold reduction in paclitaxel IC50 by MTT assay relative to control; type: functional
[4] = tested on: A549/TR; test: Antiproliferative activity against human A549/Taxol cells overexpressing ABCB1 assessed as cell growth inhibition by MTT assay; type: functional, cell-based
[5] = tested on: L5178Y; test: Cytotoxicity against multi-drug resistant mouse L5178Y cells expressing ABCB1 assessed as cell growth inhibition incubated for 24 hrs by MTT assay; type: functional, cell-based
[6] = Antiproliferative activity against human HaCaT cells assessed as inhibition of cell survival by MTT assay; type: toxicity, cell-based; details: read-out: LC50 (the source's name)
[7] = tested on: SH-SY5Y; test: Antiproliferative activity against human SH-SY5Y cells assessed as inhibition of cell survival by MTT assay; type: functional; details: read-out: LC50 (the source's name)
[8] = Antiproliferative activity against human BJ cells assessed as inhibition of cell survival by MTT assay; type: toxicity, cell-based; details: read-out: LC50 (the source's name)
[9] = tested on: U-937; test: Antiproliferative activity against human U-937 cells assessed as inhibition of cell survival by MTT assay; type: functional; details: read-out: LC50 (the source's name)
[10] = tested on: HL-60; test: Antiproliferative activity against human HL-60 cells assessed as inhibition of cell survival by MTT assay; type: functional; details: read-out: LC50 (the source's name)
[11] = tested on: HEK293; test: Antiproliferative activity against human HEK293 cells assessed as inhibition of cell survival by MTT assay; type: functional; details: read-out: LC50 (the source's name)
[12] = molecular target: T1, ATP-dependent translocase ABCB1 (Homo sapiens, UniProt P08183); test: Inhibition of P-gp1 efflux in human Flp-In-293 cells using calcein-AM as substrate assessed as increase in intracellular accumulation of calcein-AM preincubated for 30 mins followed by substrate addition and measured for 30 mins by fluorescence based assay; type: cell-based
[13] = molecular target: T1, ATP-dependent translocase ABCB1; test: Inhibition of P-gp1 efflux in human Flp-In-293 cells using rhodamine as substrate assessed as increase in intracellular accumulation of rhodamine 123 preincubated for 30 mins followed by substrate addition and measured for 10 mins by fluorescence based assay; type: cell-based
[14] = tested on: 4T1; test: Antitumor activity against mouse 4T1 cells implanted in Balb/c mouse assessed as tumor growth inhibition at 4 mg/kg administered once for every two days measured after 15 days by immunohistochemical analysis relative to control; type: functional; details: 4T1, 360 h, time 15 day
[15] = Reversal of doxorubicin resistance in human Flp-In-293 cells expressing ABCB1 assessed as cell growth inhibition in presence of caffeic acid for 30 mins by fluorescence based assay; type: functional; details: Flp-In-293, 0.5 h
[16] = Reversal of vincristine resistance in human Flp-In-293 cells expressing ABCB1 assessed as fold change in vincristine IC50 in presence of caffeic acid for 30 mins by fluorescence based assay; type: functional; details: 0.5 h
[17] = Reversal of […] in human Flp-In-293 cells expressing ABCB1 assessed as fold change in doxorubicin IC50 in presence of caffeic acid for 30 mins by fluorescence based assay; type: functional; details: 0.5 h
[18] = Reversal of vincristine resistance in human Flp-In-293 cells expressing ABCB1 assessed as cell growth inhibition in presence of caffeic acid for 30 mins by fluorescence based assay; type: functional; details: Flp-In-293, 0.5 h
[19] = Reversal of paclitaxel resistance in human Flp-In-293 cells expressing ABCB1 assessed as cell growth inhibition in presence of caffeic acid for 30 mins by fluorescence based assay; type: functional; details: Flp-In-293, 0.5 h
[20] = Reversal of paclitaxel resistance in human Flp-In-293 cells expressing ABCB1 assessed as fold change in paclitaxel IC50 in presence of caffeic acid for 30 mins by fluorescence based assay; type: functional; details: 0.5 h
[21] = Reversal of drug resistance in paclitaxel-resistant human OVCAR-3 cells assessed as fold decrease in paclitaxel IC50 in presence of paclitaxel; type: functional, paclitaxel-resistant human OVCAR-3 cell
[22] = Reversal of drug resistance in paclitaxel-resistant human TOV-21G cells assessed as fold change in paclitaxel IC50 in presence of paclitaxel; type: functional, paclitaxel-resistant human TOV-21G cell
[23] = molecular target: T1, ATP-dependent translocase ABCB1; test: Inhibition of ABCB1 in human HEK293 cells in the presence of doxorubicin; type: cell-based
[24] = tested on: KB-V1; test: cells; details: Homo sapiens, KB-V1, 72 h
Description: Cytotoxicity against human KB-V1 cells assessed as cell growth inhibition incubated for 72 hrs by MTS assay

[25] = tested on: KB 3-1; test: cells; details: Homo sapiens, KB 3-1, 72 h
Description: Cytotoxicity against human KB 3-1 cells assessed as cell growth inhibition incubated for 72 hrs by MTS assay

[26] = Antiproliferative activity against daunorubicin-resistant human EPG85-257 cells incubated for 72 hrs by annexin-V-PI staining based flow cytometry; type: functional, EPG85-257RDB
[27] = cells; details: Homo sapiens, EPP85-181RDB, 72 h
Description: Antiproliferative activity against daunorubicin-resistant human EPP85-181 cells incubated for 72 hrs by annexin-V-PI staining based flow cytometry

[28] = molecular target: T1, ATP-dependent translocase ABCB1; test: Inhibition of ABCB1 in human HEK293 cells; type: cell-based
[29] = tested on: HeLa S3; test: cells; details: Homo sapiens, HeLa S3, 72 h
Description: Antiproliferative activity against drug-sensitive human HeLaS3 cells assessed as cell growth inhibition incubated for 72 hrs by SRB assay

[30] = cells; details: Homo sapiens, KBVIN, 72 h
Description: Antiproliferative activity against multidrug-resistant human KB-VIN cells assessed as cell growth inhibition incubated for 72 hrs by SRB assay

[31] = Antiproliferative activity against human Flp-In-293 cells expressing ABCB1 assessed as cell growth inhibition incubated for 72 hrs by SRB assay; type: toxicity, cell-based

T1 sequence (P08183 whole entry): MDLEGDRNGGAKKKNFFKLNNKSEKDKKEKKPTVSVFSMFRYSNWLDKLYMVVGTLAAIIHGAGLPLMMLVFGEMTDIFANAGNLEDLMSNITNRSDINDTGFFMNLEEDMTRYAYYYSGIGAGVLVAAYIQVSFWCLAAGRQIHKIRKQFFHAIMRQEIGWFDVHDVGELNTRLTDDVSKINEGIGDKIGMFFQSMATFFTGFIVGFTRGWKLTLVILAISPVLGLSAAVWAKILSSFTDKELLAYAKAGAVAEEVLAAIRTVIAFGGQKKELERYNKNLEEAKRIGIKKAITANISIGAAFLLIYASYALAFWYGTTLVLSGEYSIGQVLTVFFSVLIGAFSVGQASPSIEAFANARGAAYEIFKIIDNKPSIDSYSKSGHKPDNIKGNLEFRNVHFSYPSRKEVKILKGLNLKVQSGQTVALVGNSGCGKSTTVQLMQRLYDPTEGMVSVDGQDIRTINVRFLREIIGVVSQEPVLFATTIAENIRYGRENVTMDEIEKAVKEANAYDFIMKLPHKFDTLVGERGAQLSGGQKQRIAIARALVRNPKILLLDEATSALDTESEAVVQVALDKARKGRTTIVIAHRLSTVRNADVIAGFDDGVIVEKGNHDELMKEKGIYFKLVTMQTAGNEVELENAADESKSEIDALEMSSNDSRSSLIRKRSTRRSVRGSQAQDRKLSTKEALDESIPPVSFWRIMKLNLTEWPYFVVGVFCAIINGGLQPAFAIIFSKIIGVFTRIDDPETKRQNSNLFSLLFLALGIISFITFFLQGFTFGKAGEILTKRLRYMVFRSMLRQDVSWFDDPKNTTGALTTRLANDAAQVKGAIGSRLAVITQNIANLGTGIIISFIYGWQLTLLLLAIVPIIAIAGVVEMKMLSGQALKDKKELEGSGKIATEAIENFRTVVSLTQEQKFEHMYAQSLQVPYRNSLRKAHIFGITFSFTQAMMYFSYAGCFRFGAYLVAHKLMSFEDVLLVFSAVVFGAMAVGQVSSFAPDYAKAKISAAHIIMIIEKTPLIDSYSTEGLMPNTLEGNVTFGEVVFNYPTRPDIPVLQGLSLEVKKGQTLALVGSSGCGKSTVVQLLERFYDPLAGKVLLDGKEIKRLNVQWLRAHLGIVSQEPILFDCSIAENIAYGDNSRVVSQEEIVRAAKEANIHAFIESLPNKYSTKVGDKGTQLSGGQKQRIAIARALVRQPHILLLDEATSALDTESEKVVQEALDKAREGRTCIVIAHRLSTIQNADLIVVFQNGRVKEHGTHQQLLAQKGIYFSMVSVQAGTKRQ

IC50 [2]: 9 µM | IC50 [4]: 9 µM
SMILES: COc1ccc(-c2cc(=O)c3c(OC)c(OC)c(OC)c(OC)c3o2)cc1OC [NOBILETIN]
fold change (FC) [1]: 15.92 | fold change (FC) [3]: 15.92

SMILES: O=C(C(C(=O)C(F)(F)C(F)(F)C(F)(F)F)=P(c1ccccc1)(c1ccccc1)c1ccccc1)c1ccccc1
IC50 [5]: 42.4 µg/mL (≈ 73.5 µM)

SMILES: Cc1cn(-c2cc(NC(=O)c3ccc(C)c(Nc4nccc(-c5cccnc5)n4)c3)cc(C(F)(F)F)c2)cn1 [NILOTINIB]
CC50 [6]: 3.9 µM | CC50 [7]: 4.2 µM | CC50 [8]: 5.6 µM | CC50 [9]: 2.3 µM | CC50 [10]: 1.7 µM | CC50 [11]: 5.9 µM

IC50 [12]: 1.56 µM | IC50 [13]: 1.56 µM
SMILES: COc1cc(/C=C/C(=O)CC(=O)/C=C/c2ccc(O)cc2)ccc1O

SMILES: CC(=O)O[C@@H]1C[C@H](O)[C@@]23CO[C@@H](O)[C@]1(C)[C@@H]2C[C@@H](O)[C@]1(C)[C@@H]3C(=O)[C@H](OC(C)=O)[C@@]2(C)[C@H](c3ccoc3)C[C@H]3O[C@]321 [TOOSENDANIN]
inhibition in vivo at 4 mg/kg [14]: 90%

SMILES: O=C(O)/C=C/c1ccc(O)c(O)c1 [CAFFEIC ACID]
IC50 [15]: 0.597 µM | fold change (FC) [16]: 3.9 | fold change (FC) [17]: 15.11 | IC50 [18]: 0.198 µM | IC50 [19]: 0.125 µM | fold change (FC) [20]: 4.96

SMILES: CS(=O)(=O)CCNCc1ccc(-c2ccc3ncnc(Nc4ccc(OCc5cccc(F)c5)c(Cl)c4)c3c2)o1 [LAPATINIB]
fold change (FC) [21]: 6.2 | fold change (FC) [22]: 20.7

SMILES: O=C(C(C(=O)C(F)(F)F)=P(c1ccccc1)(c1ccccc1)c1ccccc1)c1ccccc1
IC50 [5]: 37 µg/mL (≈ 77.7 µM)

IC50 [23]: 0.025 µM
SMILES: COc1ccc2cc1Oc1ccc(cc1)C[C@H]1c3cc(c(OC)cc3CCN1C)Oc1c(OC)c(OC)c(OC)c3c1[C@H](C2)N(C)CC3 [HERNANDEZINE]

IC50 [24]: 15.1 µM | IC50 [25]: 11.5 µM
SMILES: COc1ccc(CCC2c3cc(OCc4ccccc4)c(OC)cc3CCN2C)cc1OCc1ccccc1 (racemic)

IC50 [27]: 62 µM
SMILES: COc1cc([C@@H]2c3cc4c(cc3[C@@H](O[C@@H]3O[C@@H]5CO[C@@H](C)O[C@H]5[C@H](O)[C@H]3O)[C@H]3COC(=O)[C@H]23)OCO4)cc(OC)c1O [ETOPOSIDE]
IC5 [26]: 6.2 µM

IC50 [28]: 0.504 µM | IC50 [29]: < 40 µM | IC50 [30]: < 40 µM
SMILES: COc1cccc2c1C(=O)c1c(O)c3c(c(O)c1C2=O)C[C@@](O)(C(=O)CO)C[C@@H]3O[C@H]1C[C@H](N)[C@H](O)[C@H](C)O1 [DOXORUBICIN]
IC50 at 72 h [31]: < 40 µM

SMILES: O=C(C(C(=O)C(F)(F)C(F)(F)F)=P(c1ccccc1)(c1ccccc1)c1ccccc1)c1ccccc1
IC50 [5]: 39.4 µg/mL (≈ 74.7 µM)
